What was measured:
[1] = tested on: antibody; assay: Pepscan ELISA, replacement analyses and lengthening (Example-4); assay type: binding; settings: value is the antibody concentration
Excerpt: In addition to random minipepscan libraries mimotopes can also be identified from standard pepscan libraries. These libraries contain all overlapping 12-mers (or shorter/longer) covering the linear sequence of a known protein (Slootstra et al., 1995a).
(§1) In a replacement analysis the binding activity of complete series of substitutions analogs of lead peptides, in which each position is replaced by each of the other 19 natural L-amino acids, is investigated in detail. In addition, it is possible to use the 20 D-amino acids as well as other available non-natural amino acids. Substitutions that result in improved binding are combined into new sequences of building blocks. These new sequences are again tested in a 2nd replacement analysis. If necessary more rounds of replacement analyses are performed. After each round of a replacement analyses the antibody (or other soluble receptor) concentration can be lowered to obtain maximal binding activity (e.g. from 100 µg/ml to 0.01 µg/ml after 2 rounds of replacement-analyses, as shown in example-1).
(§2) Notes for the examples: • the 10 µg/ml, 1 µg/ml etc. denote the antibody concentration. • The line "improved position-01" etc. means that this change in amino acid (is underlined) improves binding activity in pepscan elisa at given antibody concentration. Positions that could not be improved are not mentioned (e.g. position-08 in first replacement-net of example-1, i.e. the original I at position 8 gives the highest activity).
In example-4, a lead peptide was identified through standard pepscan analysis, i.e. the antibody was tested on all overlapping 12-mers covering the linear sequence of the protein. The following two rounds of replacement analyses were done as discussed in example-1. In addition, the mimotope was lengthened to the left and right (3 amino acids, this can be further lengthened) through additional replacement analyses.

[2] = tested on: antibody; assay: Pepscan ELISA, replacement analyses of three leads and consensus (Example-6); assay type: binding; settings: value is the antibody concentration
Excerpt: (§3) Lead peptides can also be derived from other type of libraries such as for example phage-display libraries.
as §1, §2
In example-6, different lead peptides were used to identify a consensus sequence. Each lead peptide was used in multiple replacement analyses (two rounds).

[3] = tested on: antibody; assay: Pepscan ELISA, replacement analyses (Example-2); assay type: binding; settings: value is the antibody concentration, antibody binds a non-linear epitope
[4] = tested on: Monoclonal antibody 26/9; assay: PEPSCAN-based ELISA, binding of peptides to antibody 26/9 (Example-1); settings: value is the antibody 26/9 concentration at which the peptide shows binding activity in pepscan elisa
[5] = tested on: antibody; assay: Pepscan ELISA, lengthening and replacement analyses (Example-3); assay type: binding; settings: value is the antibody concentration
Excerpt: as §3, §1, §2
In example-3, lead peptides were identified through phage-display. Adjacent cysteines/glycines were added to improve binding activity. After obtained activity multiple replacement analyses were done as discussed in example-1.

[6] = tested on: antibody; assay: Pepscan ELISA, replacement analyses of consensus sequence (Example-5); assay type: binding; settings: value is the antibody concentration
Method: All 4550 dodecapeptides were ranked according to their binding activity. According to their ranking consensus sequences and motifs are identified. Initial methods of lead optimization that only use the sequence of the top 50 molecules have been described in Slootstra et al.(1995b; 1997). The present method uses all 4550 sequences. Firstly, the frequency and/or distribution of single amino acids and the dipeptide motifs OO, dipeptide motifs OXO and dipeptide motifs OXXO is determined using Microsoft Excel 4.0 (O, one of the 20 natural L-amino acids; X, any residue). Secondly, properties of the amino acids (hydrophobicity, charge etc.) are included in the analysis. […] This is done by substitution of building blocks that inhibit activity and include building blocks that improve binding activity.
as §1, §2
In example-5, a set of similar lead peptides were used to identify a consensus sequence. The consensus sequences were identified as discussed in materials and method. This sequence was used in the replacement analyses. ALIGNMENT OF LEAD PEPTIDES: • QNNMKLFRGCVP • RGIKWNEMTDQW • KLQQNPTFYPPV • TNNCKEFAGIVP • RGILTNIMKDQW • IVQNNPKFFRGA

AIMIKLILVNFR
activity at [1]: activity at ≥ 5.0 µg/ml

ANAPSA
activity at [2]: : activity at ≥ 5.0 µg/ml

ANAPSAIGAFGL
activity at [3]: activity at ≥ 5.0 µg/ml

ANWPSA
activity at [2]: : activity at ≥ 10.0 µg/ml

ANWPSAIGAFGL
activity at [3]: activity at ≥ 10.0 µg/ml

ANWSSA
activity at [2]: : activity at ≥ 5.0 µg/ml

ANWSSAIGAFGL
activity at [3]: activity at ≥ 5.0 µg/ml

ANWSSAIGAFKL
activity at [3]: activity at ≥ 5.0 µg/ml

APPIKLIRVNYR
activity at [1]: activity at ≥ 0.5 µg/ml

AVMIKLILVNFR
activity at [1]: activity at ≥ 5.0 µg/ml

AVMIKLILVNYR
activity at [1]: activity at ≥ 5.0 µg/ml

AVMIKLIRVNFR
activity at [1]: activity at ≥ 5.0 µg/ml

AVPIKLILVNFR
activity at [1]: activity at ≥ 5.0 µg/ml

AWWPSA
activity at [2]: : activity at ≥ 5.0 µg/ml

AWWPSAIGAFGL
activity at [3]: activity at ≥ 5.0 µg/ml

CGCAAENIRCYA
activity at [4]: activity at ≥ 10.0 µg/ml

CGCAAMDIRCYA
activity at [4]: activity at ≥ 10.0 µg/ml

CGCAAMNIRNYA
activity at [4]: activity at ≥ 10.0 µg/ml

CGCAANINIMCYA
activity at [4]: activity at ≥ 10.0 µg/ml

CGCAEMNIRCYA
activity at [4]: activity at ≥ 10.0 µg/ml

CGCEAMMIRCYA
activity at [4]: activity at ≥ 10.0 µg/ml

CGDAAMNIRCYA
activity at [4]: activity at ≥ 10.0 µg/ml

CMCAAMNIRCYA
activity at [4]: activity at ≥ 10.0 µg/ml

CSDTHKGCG
activity at [5]: activity at ≥ 5.0 µg/ml

CSDTRKGC
activity at [5]: activity at ≥ 10.0 µg/ml

CSDTRYGCG
activity at [5]: activity at ≥ 5.0 µg/ml

CSETRKGCG
activity at [5]: activity at ≥ 5.0 µg/ml

CTDTRKGCG
activity at [5]: activity at ≥ 5.0 µg/ml

CTETHFGCG
activity at [5]: activity at ≥ 0.5 µg/ml

CTETHYGCG
activity at [5]: activity at ≥ 1.0 µg/ml

CTETKYGCG
activity at [5]: activity at ≥ 0.5 µg/ml

CYETHYGCG
activity at [5]: activity at ≥ 0.5 µg/ml

CYETKFGCG
activity at [5]: activity at ≥ 0.1 µg/ml

CYETKFGNG
activity at [5]: activity at ≥ 0.05 µg/ml

DYETKFGCG
activity at [5]: activity at ≥ 0.05 µg/ml

DYETKFGNG
activity at [5]: activity at ≥ 0.01 µg/ml

EGCAAMNIRCYA
activity at [4]: activity at ≥ 10.0 µg/ml

EMDEEEDIMDYA
activity at [4]: activity at ≥ 0.1 µg/ml

EMDEEEDIPNYA
activity at [4]: activity at ≥ 0.1 µg/ml

EMDEEEDVMNYA
activity at [4]: activity at ≥ 0.1 µg/ml

HNWPSA
activity at [2]: : activity at ≥ 5.0 µg/ml

HNWPSAIGAFGL
activity at [3]: activity at ≥ 5.0 µg/ml

HWASPA
activity at [2]: : activity at ≥ 0.5 µg/ml

HWASSAIGAFKL
activity at [3]: activity at ≥ 1.0 µg/ml

HWASSAMGAFKL
activity at [3]: activity at ≥ 0.5 µg/ml

HWGSSAIGAFKL
activity at [3]: activity at ≥ 0.5 µg/ml

HYASSAIGAFKL
activity at [3]: activity at ≥ 0.5 µg/ml

IKLIRVNYRCEN [combination impr., replacement analysis-IV]
activity at [1]: activity at ≥ 0.1 µg/ml

IKLIRVNYRCQP
activity at [1]: activity at ≥ 0.5 µg/ml

IKLIRVNYRMEP
activity at [1]: activity at ≥ 0.5 µg/ml

IKLIRVNYRMQN
activity at [1]: activity at ≥ 0.5 µg/ml

IKLIRVNYRMQP [lengthened right]
activity at [1]: activity at ≥ 1.0 µg/ml

ILQNNMKDFRG
activity at [6]: activity at ≥ 1.0 µg/ml

ILQNNMKDWRG
activity at [6]: activity at ≥ 0.5 µg/ml

ILQNNMPDFRG
activity at [6]: activity at ≥ 0.5 µg/ml

ILTNNMGDWRG
activity at [6]: activity at ≥ 0.05 µg/ml

ILTNNMGDWYG
activity at [6]: activity at ≥ 0.01 µg/ml

ILTNNMKDFRG
activity at [6]: activity at ≥ 0.5 µg/ml

ILTNNMPDWRG
activity at [6]: activity at ≥ 0.1 µg/ml

ILTNNMPDWYG
activity at [6]: activity at ≥ 0.05 µg/ml

KIWYPPIKLIRV
activity at [1]: activity at ≥ 0.5 µg/ml

KIYYPPIKLIRV [lengthened left]
activity at [1]: activity at ≥ 1.0 µg/ml

KIYYPPISLIRV
activity at [1]: activity at ≥ 0.5 µg/ml

KLATRW
activity at [2]: : activity at ≥ 5.0 µg/ml

KLITRW
activity at [2]: : activity at ≥ 10.0 µg/ml

KLITRY
activity at [2]: : activity at ≥ 5.0 µg/ml

KPYYPPIKLIRV
activity at [1]: activity at ≥ 0.5 µg/ml

KSITRW
activity at [2]: : activity at ≥ 5.0 µg/ml

KWASSAIGAFKL
activity at [3]: activity at ≥ 0.5 µg/ml

KYFSSAMGAFKL
activity at [3]: activity at ≥ 0.05 µg/ml

KYFSSGMGAFKL
activity at [3]: activity at ≥ 0.01 µg/ml

KYGSSAMGAFKL
activity at [3]: activity at ≥ 0.1 µg/ml

KYGSSGMGAFKL
activity at [3]: activity at ≥ 0.05 µg/ml

NICHWA
activity at [2]: : activity at ≥ 1.0 µg/ml

NICSWS
activity at [2]: : activity at ≥ 5.0 µg/ml

NVCHWA
activity at [2]: : activity at ≥0.5 µg/ml

NVCHWS
activity at [2]: : activity at ≥ 5.0 µg/ml

NVCSWA
activity at [2]: : activity at ≥ 5.0 µg/ml

NVCSWS
activity at [2]: : activity at ≥ 10.0 µg/ml

RIYYPPIKLIRV
activity at [1]: activity at ≥ 0.5 µg/ml

RPWYPPISLIRV [combination impr., replacement analysis-III]
activity at [1]: activity at ≥ 0.1 µg/ml

RPWYPPISLIRVNYRCEN [combination total, 18-mer mimotope]
activity at [1]: activity at ≥ 0.01 µg/ml

RVMIKLILVNFR
activity at [1]: activity at ≥ 10.0 µg/ml

SLITRW
activity at [2]: : activity at ≥ 5.0 µg/ml

SSATRY
activity at [2]: : activity at ≥ 1.0 µg/ml

YICHWA
activity at [2]: : activity at ≥0.5 µg/ml

YIPIKLIRVNYR
activity at [1]: activity at ≥ 0.5 µg/ml

YPPIKLIRVNYR
activity at [1]: activity at ≥ 0.1 µg/ml

YVCHWA
activity at [2]: : activity at ≥ 0.1 µg/ml

YVCHWASSATRY
activity at [2]: activity at 0.01 µg/ml

— patent EP1129354B1, “A METHOD FOR DETERMINING A MIMOTOPE SEQUENCE” (PEPSCAN SYSTEMS B.V., priority 1998, dated 2000)
